# How the values were obtained:
# Experiment in all cases: KAM-matrix competition in K562 lysate;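 for 0.001 uM KAM: median log10 fold change of treatment over DMSO control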;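 for 0.01 uM KAM: median log10 fold change of treatment over DMSO control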;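 for 0.1 uM KAM: median log10 fold change of treatment over DMSO control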;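 for 1 uM KAM: median log10 fold change of treatment over DMSO control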;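 for 10 uM KAM: median log10 fold change of treatment over DMSO control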
# Type in all cases: binding
# CAMK4 = target: T1, CAMK4 (Homo sapiens, UniProt Q16566);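 for 0.001 uM KAM: median log10 fold change of treatment over DMSO control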;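 for 0.01 uM KAM: median log10 fold change of treatment over DMSO control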;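 for 0.1 uM KAM: median log10 fold change of treatment over DMSO control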;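 for 1 uM KAM: median log10 fold change of treatment over DMSO control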;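 for 10 uM KAM: median log10 fold change of treatment over DMSO control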
# T1 construct: endogenous in cells; host or cells: K562
# T1 sequence (Q16566 1-473): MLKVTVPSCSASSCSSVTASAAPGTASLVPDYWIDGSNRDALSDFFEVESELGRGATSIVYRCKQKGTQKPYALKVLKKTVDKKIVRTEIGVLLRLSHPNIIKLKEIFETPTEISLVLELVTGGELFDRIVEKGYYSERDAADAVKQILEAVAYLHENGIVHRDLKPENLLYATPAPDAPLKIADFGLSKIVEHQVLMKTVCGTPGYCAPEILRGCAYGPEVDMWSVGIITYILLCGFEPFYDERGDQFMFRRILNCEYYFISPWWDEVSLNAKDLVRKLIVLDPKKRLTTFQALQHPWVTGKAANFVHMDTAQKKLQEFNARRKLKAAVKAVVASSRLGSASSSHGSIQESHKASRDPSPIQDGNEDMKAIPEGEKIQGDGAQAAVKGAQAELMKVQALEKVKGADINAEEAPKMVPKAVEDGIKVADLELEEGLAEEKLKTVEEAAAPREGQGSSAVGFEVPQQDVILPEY
# Experimental: (§1) Supplement 12953_2017_125_MOESM1_ESM.zip/MS_Supp Info.xlsx, sheet "KAM" | column: 10 uM KAM; 1 uM KAM; 0.1 uM KAM; 0.01 uM KAM; 0.001 uM KAM; RB50
# IKBKE = target: T2, IKBKE (Homo sapiens, UniProt Q14164)
# T2 construct: endogenous in cells; host or cells: K562 cells (lysate)
# T2 sequence (Q14164 1-716): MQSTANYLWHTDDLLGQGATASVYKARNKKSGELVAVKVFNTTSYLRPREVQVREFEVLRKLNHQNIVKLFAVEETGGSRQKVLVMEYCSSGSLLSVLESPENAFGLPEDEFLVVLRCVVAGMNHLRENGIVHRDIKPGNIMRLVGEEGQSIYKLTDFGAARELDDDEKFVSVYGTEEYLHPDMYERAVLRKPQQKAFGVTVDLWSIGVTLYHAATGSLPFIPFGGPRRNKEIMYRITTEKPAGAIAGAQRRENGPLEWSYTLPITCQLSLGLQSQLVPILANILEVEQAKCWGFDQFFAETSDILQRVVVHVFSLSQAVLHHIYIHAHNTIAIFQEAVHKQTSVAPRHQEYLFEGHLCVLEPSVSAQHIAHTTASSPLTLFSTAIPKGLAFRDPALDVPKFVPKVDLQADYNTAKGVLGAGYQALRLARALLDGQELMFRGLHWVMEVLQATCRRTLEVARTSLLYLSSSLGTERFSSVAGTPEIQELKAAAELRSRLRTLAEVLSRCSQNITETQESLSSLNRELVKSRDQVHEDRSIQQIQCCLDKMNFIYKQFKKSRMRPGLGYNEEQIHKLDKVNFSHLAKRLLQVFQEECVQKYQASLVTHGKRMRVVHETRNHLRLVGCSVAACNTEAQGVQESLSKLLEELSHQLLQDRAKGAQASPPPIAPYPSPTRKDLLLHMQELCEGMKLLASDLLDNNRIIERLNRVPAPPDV
# Experimental: as §1
# NME3 = target: T3, NME3 (Homo sapiens, UniProt Q13232);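 for 0.001 uM KAM: median log10 fold change of treatment over DMSO control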;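 for 0.01 uM KAM: median log10 fold change of treatment over DMSO control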;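 for 0.1 uM KAM: median log10 fold change of treatment over DMSO control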;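 for 1 uM KAM: median log10 fold change of treatment over DMSO control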;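 for 10 uM KAM: median log10 fold change of treatment over DMSO control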
# T3 construct: endogenous in cells; host or cells: K562
# T3 sequence (Q13232 1-169): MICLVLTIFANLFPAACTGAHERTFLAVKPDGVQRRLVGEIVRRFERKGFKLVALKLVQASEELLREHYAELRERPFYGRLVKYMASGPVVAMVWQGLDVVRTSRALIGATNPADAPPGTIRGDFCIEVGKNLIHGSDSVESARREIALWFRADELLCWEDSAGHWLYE
# Experimental: as §1
# PRKD3 = target: T4, PRKD3 (Homo sapiens, UniProt O94806)
# T4 construct: endogenous in cells; host or cells: K562
# T4 sequence (O94806 1-890): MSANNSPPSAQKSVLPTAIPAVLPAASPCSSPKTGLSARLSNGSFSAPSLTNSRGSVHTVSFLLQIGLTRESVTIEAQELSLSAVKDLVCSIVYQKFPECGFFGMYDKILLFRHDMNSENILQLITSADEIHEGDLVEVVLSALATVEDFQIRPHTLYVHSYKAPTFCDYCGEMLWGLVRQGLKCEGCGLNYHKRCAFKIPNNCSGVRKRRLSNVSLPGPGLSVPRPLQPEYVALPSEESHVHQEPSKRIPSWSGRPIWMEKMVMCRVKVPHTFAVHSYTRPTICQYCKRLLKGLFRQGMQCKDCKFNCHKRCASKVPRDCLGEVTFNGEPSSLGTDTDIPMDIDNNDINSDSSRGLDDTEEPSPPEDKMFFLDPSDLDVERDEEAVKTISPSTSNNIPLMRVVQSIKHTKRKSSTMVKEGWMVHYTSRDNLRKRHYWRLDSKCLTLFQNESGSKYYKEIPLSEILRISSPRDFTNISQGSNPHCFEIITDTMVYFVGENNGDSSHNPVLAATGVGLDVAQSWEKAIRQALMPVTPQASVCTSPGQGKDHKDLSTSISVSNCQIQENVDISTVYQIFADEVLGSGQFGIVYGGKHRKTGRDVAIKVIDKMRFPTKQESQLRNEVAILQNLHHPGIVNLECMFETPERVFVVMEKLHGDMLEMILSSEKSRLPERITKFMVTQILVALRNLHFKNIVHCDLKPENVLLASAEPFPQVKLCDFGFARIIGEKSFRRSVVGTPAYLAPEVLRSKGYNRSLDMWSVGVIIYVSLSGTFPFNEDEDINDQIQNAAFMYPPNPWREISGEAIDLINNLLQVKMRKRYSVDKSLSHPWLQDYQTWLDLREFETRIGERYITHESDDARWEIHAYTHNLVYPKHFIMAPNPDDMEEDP
# Experimental: as §1
# [1] = KAM 0.001-10 uM, read-out: RB50 (the source's name)
# [2] = read-out: RB50 (the source's name)
smiles,measurement,setting,value
N#CCc1ccc(Nc2nc(NCCCN)cc(Nc3cc(C4CC4)[nH]n3)n2)cc1 [KAM],IC50,CAMK4; [1],> 10000 nM
same,0.001 uM KAM,CAMK4; relative to 0 uM KAM = 0,-0.0432
same,0.01 uM KAM,CAMK4; relative to 0 uM KAM = 0,0.002565
same,0.1 uM KAM,CAMK4; relative to 0 uM KAM = 0,0.008768
same,1 uM KAM,CAMK4; relative to 0 uM KAM = 0,0.00582
same,10 uM KAM,CAMK4; relative to 0 uM KAM = 0,-0.03437
same,median Log10 fold change,IKBKE; 0.001 uM KAM,-0.04139
same,median Log10 fold change,IKBKE; 0.01 uM KAM,-0.01605
same,median Log10 fold change,IKBKE; 0.1 uM KAM,-0.1319
same,median Log10 fold change,IKBKE; 1 uM KAM,-0.3552
same,median Log10 fold change,IKBKE; 10 uM KAM,-0.4826
same,IC50,IKBKE; [2],823 nM
same,IC50,NME3; [1],> 10000 nM
same,0.001 uM KAM,NME3; relative to 0 uM KAM = 0,-0.01588
same,0.01 uM KAM,NME3; relative to 0 uM KAM = 0,-0.01222
same,0.1 uM KAM,NME3; relative to 0 uM KAM = 0,-0.05319
same,1 uM KAM,NME3; relative to 0 uM KAM = 0,0.05076
same,10 uM KAM,NME3; relative to 0 uM KAM = 0,0.01706
same,median Log10 fold change,PRKD3; 0.001 uM KAM,-0.02816
same,median Log10 fold change,PRKD3; 0.01 uM KAM,-0.02551
same,median Log10 fold change,PRKD3; 0.1 uM KAM,-0.171
same,median Log10 fold change,PRKD3; 1 uM KAM,-0.366
same,median Log10 fold change,PRKD3; 10 uM KAM,-0.539
same,IC50,PRKD3; [2],633 nM
